Where two headings read alike, the source gives them in different places.
Experiments:
[1] = Intrinsic metabolic clearance determined in human liver microsomes; format: in vitro ADME; conditions: pH 7.4
[2] = cited from earlier work
[3] = ref Supplemental Table S1, cited from earlier work; for HBD: number of hydrogen bond donors; for log D: octanol/water at pH 7.4; for PSA: polar surface area
[4] = Humans, cited from earlier work; for CL: i.v.; for CL / F / Vss: ref Supplemental Table S2; for F: oral bioavailability; for Urinary excretion (f e): excreted unchanged in urine, ref Supplemental Table S1
[5] = cited from earlier work; for F: po
[6] = human, Caco-2, pH 7.4, with cyclosporine A 10 μM
Caco‐2 cells (TC7 clone) = conditions: Equation 11 from measured P‐Caco2
[7] = Rats, fraction unbound; ref Supplemental Table S1; cited from earlier work
[8] = Humans, blood/plasma ratio; ref Supplemental Table S1; cited from earlier work
[9] = Rats, blood/plasma ratio; ref Supplemental Table S1; cited from earlier work
[10] = no medium marked (buffer pH 7.4), ref Supplemental Table S1
[11] = Rats, i.v., ref Supplemental Table S2

SMILES: COCCOC(=O)C1=C(C)NC(C)=C(C(=O)OC(C)C)C1c1cccc([N+](=O)[O-])c1 (stereo not drawn) [Nimodipine]
- microsomal CLint at 1 μM [1]: > 1000 µL/min/mg
- Solubility (Biorelevant media or Buffer, pH 7.4) [2, 10]: 0.024 mg/ml
- HBD [3]: 1
- log D [3]: 2.86
- PSA [3]: 121.6
- CL [4]: 58.8 L/h
- F [4]: 0.33
- Vss [4]: 0.94 L/kg
- CL [5, 11]: 1.5 mL/min/kg
- F ([5]; rat, in vivo): 0.22
- Papp at 2 h, 1 μM [6]: 22.2 ×10⁻⁶ cm/s
- Calculated P eff from P‐Caco2 (Caco‐2 cells (TC7 clone)): 3.3 10^−4 cm/s

SMILES: Cc1nnc2n1-c1ccc(Cl)cc1C(c1ccccc1Cl)=NC2 [Triazolam]
- f up [7]: 0.28
- Solubility (Biorelevant media or Buffer, pH 7.4) [2, 10]: 0.005 mg/ml
- HBD [3]: 0
- PSA [3]: 33.3
- Urinary excretion (f e) [4]: 2 % of dose
- CL [4]: 12.72 L/h
- F [4]: 0.8
- CL ([5]; rat, in vivo, iv): 51.4 mL/min/kg
- F ([5]; rat, in vivo): 0.16

SMILES: CCCc1nn(C)c2c(=O)[nH]c(-c3cc(S(=O)(=O)N4CCN(C)CC4)ccc3OCC)nc12 [Sildenafil]
- microsomal CLint at 1 μM [1]: 98 µL/min/mg
- Solubility (Biorelevant media or Buffer, pH 7.4) [2, 10]: 3.5 mg/ml
- HBD [3]: 1
- log D [3]: 2.45
- PSA [3]: 105.2
- Base pKa [3]: 6.0
- CL [4]: 40.08 L/h
- F [4]: 0.41
- CL [5, 11]: 38.5 mL/min/kg
- F ([5]; rat, in vivo): 0.06
- Papp at 2 h, 1 μM [6]: 28.6 ×10⁻⁶ cm/s
- Calculated P eff from P‐Caco2 (Caco‐2 cells (TC7 clone)): 3.7 10^−4 cm/s

SMILES: COC(=O)C1=C(C)NC(C)=C(C(=O)OCC(C)C)C1c1ccccc1[N+](=O)[O-] (stereo not drawn) [Nisoldipine]
- microsomal CLint at 1 μM [1]: > 1000 µL/min/mg
- f up [7]: 0.009
- Solubility (Biorelevant media or Buffer, pH 7.4) [2, 10]: 0.006 mg/ml
- HBD [3]: 1
- log D [3]: 4.96
- PSA [3]: 110.5
- Urinary excretion (f e) [4]: < 1 % of dose
- CL [4]: 50.82 L/h
- F [4]: 0.04
- Vss [4]: 4.1 L/kg
- CL [5, 11]: 45.8 mL/min/kg
- F ([5]; rat, in vivo): 0.03
- Papp at 2 h, 1 μM [6]: 56.7 ×10⁻⁶ cm/s
- Calculated P eff from P‐Caco2 (Caco‐2 cells (TC7 clone)): 5.2 10^−4 cm/s

SMILES: COC(=O)C1=C(C)NC(C)=C(C(=O)OC)C1c1ccccc1[N+](=O)[O-] [Nifedipine]
- Urinary excretion (f e) [4]: 0 % of dose

SMILES: Cc1ncc2n1-c1ccc(Cl)cc1C(c1ccccc1F)=NC2 [Midazolam]
- microsomal CLint at 1 μM [1]: 392 µL/min/mg
- R b [8]: 0.75
- R b [9]: 0.81
- Solubility (Biorelevant media or Buffer, pH 7.4) [2, 10]: 0.024 mg/ml
- HBD [3]: 0
- log D [3]: 1.53
- PSA [3]: 20.1
- Base pKa [3]: 5.6
- Urinary excretion (f e) [4]: < 1 % of dose
- CL [4]: 19.38 L/h
- F [4]: 0.7
- Vss [4]: 0.74 L/kg
- CL ([5]; rat, in vivo, iv): 46 mL/min/kg
- F ([5]; rat, in vivo): 0.25

SMILES: CC[C@H]1OC(=O)[C@H](C)[C@@H](O[C@H]2C[C@@](C)(OC)[C@@H](O)[C@H](C)O2)[C@H](C)[C@@H](O[C@@H]2O[C@H](C)C[C@H](N(C)C)[C@H]2O)[C@](C)(O)C[C@@H](C)C(=O)[C@H](C)[C@@H](O)[C@]1(C)O [Erythromycin]
- Solubility (Biorelevant media or Buffer, pH 7.4) [2, 10]: 2 mg/ml
- HBD [3]: 5
- log D [3]: 1.16
- PSA [3]: 203.3
- CL [4]: 18.73 L/h
- F [4]: 0.21
- Vss [4]: 0.60 L/kg
- CL [5, 11]: 105 mL/min/kg
- F ([5]; rat, in vivo): 0.14

SMILES: COc1ccc([C@@H]2Sc3ccccc3N(CCN(C)C)C(=O)[C@@H]2OC(C)=O)cc1 [Diltiazem]
- microsomal CLint at 1 μM [1]: 35 µL/min/mg
- Solubility (Biorelevant media or Buffer, pH 7.4) [2, 10]: 0.47 mg/ml
- HBD [3]: 0
- PSA [3]: 56.5
- Base pKa [3]: 8.1
- CL [4]: 48.3 L/h
- Vss [4]: 5.2 L/kg
- CL [5, 11]: 42 mL/min/kg
- F ([5]; rat, in vivo): 0.06

SMILES: CN1CCN2c3ncccc3Cc3ccccc3C2C1 (stereo not drawn) [Mirtazapine]
- microsomal CLint at 1 μM [1]: 11 µL/min/mg
- Solubility (Biorelevant media or Buffer, pH 7.4) [2, 10]: 0.002 mg/ml
- HBD [3]: 0
- log D [3]: 0.28
- PSA [3]: 12.3
- CL [4]: 38.3 L/h
- F [4]: 0.4
- Vss [4]: 3.52 L/kg
- CL [5, 11]: 29.4 mL/min/kg
- F ([5]; rat, in vivo): 0.07
- Papp at 2 h, 1 μM [6]: 33.2 ×10⁻⁶ cm/s
- Calculated P eff from P‐Caco2 (Caco‐2 cells (TC7 clone)): 4.0 10^−4 cm/s

SMILES: C=CCc1ccccc1OCC(O)CNC(C)C (stereo not drawn) [Alprenolol]
- microsomal CLint at 1 μM [1]: 128 µL/min/mg
- R b [8]: 0.76
- R b [9]: 1.71
- Solubility (Biorelevant media or Buffer, pH 7.4) [2, 10]: 0.55 mg/ml
- HBD [3]: 2
- log D [3]: 1.34
- PSA [3]: 46.2
- Urinary excretion (f e) [4]: 0.5 % of dose
- CL [4]: 65.90 L/h
- F [4]: 0.06
- Vss [4]: 2.99 L/kg
- CL [5, 11]: 79 mL/min/kg
- F ([5]; rat, in vivo): 0.04
- Papp at 2 h, 1 μM [6]: 31.5 ×10⁻⁶ cm/s
- Calculated P eff from P‐Caco2 (Caco‐2 cells (TC7 clone)): 3.9 10^−4 cm/s

SMILES: CCC(C)n1ncn(-c2ccc(N3CCN(c4ccc(OCC5COC(Cn6cncn6)(c6ccc(Cl)cc6Cl)O5)cc4)CC3)cc2)c1=O (stereo not drawn) [Itraconazole]
- f up [7]: 0.009
- Solubility (Biorelevant media or Buffer, pH 7.4) ([2]; FaHIF, fasted human intestinal fluid): 0.006 (FaHIF) mg/ml
- HBD [3]: 0
- log D [3]: 3.27
- PSA [3]: 84.7
- Urinary excretion (f e) [4]: < 1 % of dose
- CL [4]: 22.86 L/h
- F [4]: 0.76
- CL [5, 11]: 9.1 mL/min/kg
- F ([5]; rat, in vivo): 0.35

— paper PMC5412686 (Biopharmaceutics & Drug Disposition, 2017)
